# Tests used:
# Type in all cases: in vivo
# [1] = tested on: scopolamine-induced amnesic mice; assay: Object recognition test (ORT); conditions: i.p., tacrine 1 mg/kg, IND8, QND8 10 and 50 μmol/kg
# Method: FIG. 22 illustrates exploration time to familiar (F) and novel (N) objects of IND8 (A) and QND8 (B) in test phase of ORT. Each mouse was allowed to explore an open field apparatus for 5 min in a habituation phase. After a 24 h period, IND8, QND8, PNU-282987, vehicle (15% Tween80, SH) and tacrine (TC) were injected 1 h and scopolamine (SC) 30 min before sample phase, respectively. Each mouse explored 2 identical objects in the sample phase for 5 min and then placed in its cage for 10 min before the test phase began. In the 5 min of test phase, one of the objects was changed to a new one. The exploration time of these objects was recorded.
# In both data sets, a discrimination index (DI) was calculated and used to evaluate the ability of mice to discriminate between familiar and novel objects. Data are represented in FIG. 23.
# (§1) Amnesia was induced pharmacologically in mice via scopolamine injection (single dose) for 30 min prior to start the experiments. They were divided into vehicle group: receiving 15% tween 80 and 0.9% NSS, amnesia group: receiving scopolamine 1 mg/kg, standard positive control group receiving tacrine 1 mg/kg, and test group: receiving IND8, QND8 at dose 5, 10, 25, 50 μmol/kg, or PNU-282987 3, 10 mg/kg, single dose. All mice were acclimated in an experimental room at least 30 min before the experiments.
# The apparatus was made of black polyvinyl chloride (52×52×40 cm). The objects used in this experiment had different visual shapes and colors to be discriminated. They were placed 10 cm from the side wall in the balanced manner. The box area and objects were cleaned with 70% ethanol between each experiment to remove odor cues.
# The mice were randomly divided into different treatment groups. They were allowed to freely explore the open field apparatus for 5 min for habituation in the day prior to the experiments to get familiar with the apparatus. On the experimental day, test compounds injected 1 h, whereas scopolamine administered 30 min before the sample phase (acquisition trial). The mice were placed in the apparatus to explore 2 identical objects. After 10 min of acclimation in their cages, one object was changed to a new one, and mice were allowed to explore these objects for 5 min in the test phase (retention trial). The exploration time of each object was recorded if the nose of mice approached the objects within 3 cm or touched the objects. The discrimination index (DI) was calculated by using (TN−TF)/(TN+TF); TN and TF represented exploration time of new and familiar objects, respectively.
# [2] = tested on: scopolamine-induced amnesic mice; assay: Modified Y-maze test; conditions: i.p. 1 h before, scopolamine 1 mg/kg, doses as in the sentence
# Method: The modified Y-maze test was performed to evaluate spatial working memory. The experiment was divided into 3 sessions; (i) IND8 at 5, 10, and 50 μmol/kg or 1.5, 2.9, and 14.7 mg/kg doses, (ii) QND8 at 5, 10, and 50 μmol/kg or 1.4, 2.7, 13.5 mg/kg doses, and (iii) IND8 and QND8 at dose of 25 μmol/kg or 7.3 and 6.8 mg/kg, respectively and PNU-282987 at […] or 3, 10 mg/kg doses.
# FIG. 21 illustrates the percentage of unfamiliar arm exploration in modified Y-maze of IND8 (FIG. 21A), QND8 (FIG. 21B), and IND8, QND8, PNU-282987 (FIG. 21C). IND8, QND8, PNU-282987, vehicle (15% Tween80, SH) and tacrine (TC) were injected 1 h and scopolamine (SC) 30 min before sample phase, respectively. Each mouse was placed at the end of one arm and allowed to access 2 arms of Y-maze for 5 min in sample phase. After a 30 min period, the mouse was allowed to explore 3 arms for 5 min. The number of entries for each arm was recorded and the percentage of unfamiliar arm exploration was calculated. Data represented in means±standard errors (SE).
# Male ICR mice (6-weeks of age) were housed in 5 per cage with free access to food and tap water under 12 h light and dark cycle (light on 6:00 to 18:00) in a temperature and humidity controlled room. They were acclimated in a laboratory at least 7 days prior to starting experiments. The experimental protocols were approved by the Animal Care and Use Committee of KhonKaen University, Thailand.
# Tacrine hydrochloride (Sigma-Aldrich, St. Louis, Mo.), PNU-282987 hydrochloride (Alamone, Jerusalem, Israel) and test compounds were prepared as suspensions by using 15% tween 80 in distilled water as a vehicle, whereas scopolamine hydrochloride (Sigma-Aldrich, St. Louis, Mo.) and methyllycaconitine citrate (MLA) (Abcam, Cambridge, England) were prepared as a solution by dissolving with 0.9% normal saline solution (NSS). All compounds were administered by intraperitoneal (i.p.) injection in the amount of 5 mL/kg. Test compounds were injected 1 h and scopolamine was administered 30 min before the experiments, whereas MLA was injected 5 min before the test compounds.
# as §1
# The maze in this experiment is the same apparatus using in locomotor activity test except there is the black partition to close one of three arms. The mice were randomly separated into different treatment groups. They were injected with test compounds and scopolamine at 1 h and 30 min, respectively, before the sample phase. In this phase which one arm of Y-maze was closed by the black partition, each mouse was placed at the end of one arm and allowed to move through 2 arms for 5 min to get familiar with the two opened arms. After 30 min of resting, all arms were opened and the mouse was allowed to move freely through all 3 arms. The maze area and the partition were cleaned with 70% ethanol between each experiment to remove olfactory cues. The number of entries in each arm was counted visually if mice accessed into each arm at least 10 cm. The percentage of unfamiliar arm exploration was calculated as following equation: […]
# [3] = tested on: scopolamine-induced amnesic mice; assay: Water maze test; conditions: i.p., IND8 25 and 50 μmol/kg, QND8 25 μmol/kg
# Method: The water maze test, a model for spatial learning and reference memory, related to function in the hippocampus, was also used as a study model in which mice locate a hidden platform after training session. Mice were trained to locate a hidden platform until a steady state measured by a shortened escape latency time was reached.
# The average swimming time in a target quadrant where the platform had previously been placed was measured in the test day, day 8 (FIG. 25).
# FIG. 25 illustrates the average swimming time in the target quadrant of water maze test. Data are presented in means±SE. IND8, QND8, PNU-282987, vehicle (15% Tween80, SH) and tacrine (TC) were injected 1 h and scopolamine (SC) 30 min before testing, respectively.
# A black circular tank (diameter 70 cm; height 28 cm) was divided into 4 quadrants with a removable escape platform (6×7.5×14 cm) centered in a target quadrant. The tank was filled with water to 15 cm height and the platform was located 1 cm below the water surface.
# Mice were trained from 5-7 days to get the steady state of escape latency. During day 1 to 5, each mouse was trained to swim from each quadrant with 1 min maximum time and allowed to stay on the platform for 10 sec. The mouse is placed on the platform for 10 s if it cannot find the hidden platform within 1 min. The escape latency time from each quadrant was measured. […] The probe test began when the escape latency time reached the steady state. The platform was removed and time spent in the target quadrant was measured. On the next day, all conditions were the same as probe test, but the platform was brought back to remind the mice of the target quadrant location. All mice were injected with test compounds 1 h and scopolamine 30 min before testing. The swimming time in the target quadrant was measured.
smiles,measurement,setting,value
"Nc1c2c(nc3ccccc13)CCCC2 [Tacrine, reference compound]","Discrimination index / episodic short-term memory, ORT vs scopolamine-treated group",[1],significantly improved episodic short-term memory
same,"Discrimination index / episodic short-term memory, ORT vs scopolamine-treated group",[1]; listed as tacrine,can improve cognitive deficits induced by scopolamine in all test models
same,"Unfamiliar arm exploration / cognitive deficit, modified Y-maze vs scopolamine-treated group",[2],reversed the cognitive deficit induced by scopolamine
same,"Unfamiliar arm exploration / cognitive deficit, modified Y-maze vs scopolamine-treated group",[2]; listed as tacrine,can improve cognitive deficits induced by scopolamine in all test models
same,"Time in target quadrant, water maze vs scopolamine-treated group",[3],significantly improved cognitive deficits
same,"Time in target quadrant, water maze vs scopolamine-treated group",[3]; listed as tacrine,can improve cognitive deficits induced by scopolamine in all test models
